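Following 48 hours of exposure in 96-well plates, responses at five concentrations were used to interpolate endpoints linearly. At the GI50, growth is halved.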 Active and inactive are the calls of the source. No stated cut-off is given here; in the data, active = GI50 up to about 1.1 µM and inactive = higher.
Tests used:
Test in all cases: NCI tumour cell line growth inhibition, 48 h
NCI-H23 = tested on: NCI-H23
NCI-H226 = tested on: NCI-H226
MDA-MB-435 = tested on: MDA-MB-435
HCC 2998 = tested on: HCC 2998
NCI-H522 = tested on: NCI-H522
PC-3 = tested on: PC-3
UO-31 = tested on: UO-31
HOP-92 = tested on: HOP-92
786-0 = tested on: 786-0
IGROV-1 = tested on: IGROV-1
HT-29 = tested on: HT-29
M14 = tested on: M14
LOX IMVI = tested on: LOX IMVI
RXF 393 = tested on: RXF 393
HOP-62 = tested on: HOP-62
KM12 = tested on: KM12
MOLT-4 = tested on: MOLT-4
SF-268 = tested on: SF-268
DU-145 = tested on: DU-145
SN12C = tested on: SN12C
OVCAR-4 = tested on: OVCAR-4
Hs-578T = tested on: Hs-578T
U-251 = tested on: U-251
T47D = tested on: T47D
A549 = tested on: A549
HCT-116 = tested on: HCT-116
MCF7 = tested on: MCF7
K562 = tested on: K562
SK-MEL-5 = tested on: SK-MEL-5
RPMI-8226 = tested on: RPMI-8226
SF-295 = tested on: SF-295
UACC-257 = tested on: UACC-257
SK-MEL-2 = tested on: SK-MEL-2
OVCAR-8 = tested on: OVCAR-8
SNB-19 = tested on: SNB-19
SW-620 = tested on: SW-620
EKVX = tested on: EKVX
UACC-62 = tested on: UACC-62
OVCAR-5 = tested on: OVCAR-5
CAKI-1 = tested on: CAKI-1
SK-OV-3 = tested on: SK-OV-3
MDA-MB-231 = tested on: MDA-MB-231
Malme-3M = tested on: Malme-3M
ACHN = tested on: ACHN
OVCAR-3 = tested on: OVCAR-3
SF-539 = tested on: SF-539
NCI-H460 = tested on: NCI-H460
SK-MEL-28 = tested on: SK-MEL-28
TK-10 = tested on: TK-10
COLO 205 = tested on: COLO 205
CCRF-CEM = tested on: CCRF-CEM
HCT-15 = tested on: HCT-15
A498 = tested on: A498
SR = tested on: SR
MDA-N = tested on: MDA-N
BT-549 = tested on: BT-549
HL-60 = tested on: HL-60
NCI/ADR-RES = tested on: NCI/ADR-RES
SNB-75 = tested on: SNB-75

## Cc1cc(C)c2c(O)cc(-c3cccc(F)c3)nc2n1
NCI-H23
  GI50: 0.294 µM (active)
NCI-H226
  GI50: 0.168 µM (active)
MDA-MB-435
  GI50: < 0.01 µM (active)
HCC 2998
  GI50: 0.301 µM (active)
NCI-H522
  GI50: 0.03 µM (active)
PC-3
  GI50: 0.0718 µM (active)
UO-31
  GI50: 12.9 µM (inactive)
HOP-92
  GI50: < 0.01 µM (active)
786-0
  GI50: 0.177 µM (active)
IGROV-1
  GI50: 0.0766 µM (active)
HT-29
  GI50: 0.0405 µM (active)
M14
  GI50: 0.0521 µM (active)
LOX IMVI
  GI50: 0.191 µM (active)
RXF 393
  GI50: 0.163 µM (active)
HOP-62
  GI50: 0.158 µM (active)
KM12
  GI50: 0.0351 µM (active)
MOLT-4
  GI50: 0.22 µM (active)
SF-268
  GI50: 1.44 µM (inactive)
DU-145
  GI50: 0.215 µM (active)
SN12C
  GI50: 0.299 µM (active)
OVCAR-4
  GI50: 4.08 µM (inactive)
Hs-578T
  GI50: 0.0614 µM (active)
U-251
  GI50: 0.0724 µM (active)
T47D
  GI50: 0.232 µM (active)
A549
  GI50: 0.0847 µM (active)
HCT-116
  GI50: < 0.0186 µM (active)
MCF7
  GI50: 0.0308 µM (active)
K562
  GI50: < 0.0175 µM (active)
SK-MEL-5
  GI50: 0.0422 µM (active)
RPMI-8226
  GI50: 0.139 µM (active)
SF-295
  GI50: 0.0348 µM (active)
UACC-257
  GI50: 10.4 µM (inactive)
SK-MEL-2
  GI50: 0.098 µM (active)
OVCAR-8
  GI50: 0.261 µM (active)
SNB-19
  GI50: 0.136 µM (active)
SW-620
  GI50: < 0.0194 µM (active)
EKVX
  GI50: 0.45 µM (active)
UACC-62
  GI50: < 0.0284 µM (active)
OVCAR-5
  GI50: 0.399 µM (active)
CAKI-1
  GI50: 0.0536 µM (active)
SK-OV-3
  GI50: 0.158 µM (active)
MDA-MB-231
  GI50: 0.42 µM (active)
Malme-3M
  GI50: 0.0614 µM (active)
ACHN
  GI50: 0.0953 µM (active)
OVCAR-3
  GI50: 0.025 µM (active)
SF-539
  GI50: 0.0944 µM (active)
NCI-H460
  GI50: 0.0738 µM (active)
SK-MEL-28
  GI50: 0.115 µM (active)
TK-10
  GI50: 23.7 µM (inactive)
COLO 205
  GI50: 0.043 µM (active)
CCRF-CEM
  GI50: 0.172 µM (active)
HCT-15
  GI50: 0.0495 µM
A498
  GI50: 0.274 µM (active)
SR
  GI50: 0.0169 µM (active)
MDA-N
  GI50: 0.0116 µM (active)
BT-549
  GI50: 0.175 µM (active)
HL-60
  GI50: 0.0312 µM (active)
NCI/ADR-RES
  GI50: 0.0422 µM (active)
SNB-75
  GI50: 0.0692 µM (active)

From ChEMBL document CHEMBL1201862, “PubChem BioAssay data set” (2004)
